According to patent US6750213B2, “Estrogen receptor modulators” (Merck & Co., Inc., priority 2000, dated 2004):

Tested on: MCF-7 cells
Assay: MCF-7 Estrogen Dependent Proliferation Assay
Type: cell-based
Details: Homo sapiens, MCF7, addition to Estrogen Depleted Media (EDM), read-out: EC50 of stimulation of growth of MCF-7 cells
From the text: MCF-7 cells (ATCC #HTB-22) are human mammary gland adenocarcinoma cells that require estrogen for growth. The growth media (GM) for the MCF-7 cells is Minimum Essential Media (without phenol red) supplemented with fetal bovine serum(FBS) to 10%. The FBS serves as the sole source of estrogen and this GM supports the full growth of the cells and is used for the routine growth of the cell cultures. When MCF-7 cells are placed in a media in which 10% Charcoal-Dextran treated fetal bovine serum (CD-FBS) is substituted for FBS, the cells will cease to divide but will remain viable. […] The addition of estradiol to EDM stimulates the growth of the MCF-7 cells in a dose dependent manner with an EC50 of 2 pM. Growing MCF-7 cells are washed several times with EDM and the cultures then maintained in EDM for a minimum of 6 days in order to deplete the cells of endogenous estrogen. […] At this point, the culture supernatants are aspirated, the cells washed 2×with PBS, the wash solution aspirated and the protein content of each well determined. Each drug dilution is evaluated on a minimum of 5 wells and the range of dilution of the test compounds in the assay is […] to 1000 nM. […] The assay is terminated at day 8-10 when the appropriate controls reach 80-90% confluency and the protein content of each well is determined as above.

EC50: 2 pM
SMILES: C[C@]12CC[C@@H]3c4ccc(O)cc4CC[C@H]3[C@@H]1CC[C@@H]2O [estradiol]
